Measurements as given in patent US20190231748A1, “COMPOSITION FOR VAGINA AND ANTIMICROBIAL AGENT COMBINATION FOR USE IN PREPARING COMPOSITION FOR VAGINA” (Shenzhen Eulikan Biotechnology Co., Ltd., priority 2016, published 2019).

Key:
Assay type in all cases: cell-based
[1] = tested on: nine strains of Candida albicans; test: Growth of Candida in enrichment broth after 24 hours, clinical strains; parameters: key to growth of Candida albicans, strain 1 / growth of Candida albicans, strain 2 / growth of Candida albicans, strain 3 / growth of Candida albicans, strain 4 / growth of Candida albicans, strain 5 / growth of Candida albicans, strain 6 / growth of Candida albicans, strain 7 / growth of Candida albicans, strain 8 / growth of Candida albicans, strain 9: +: means the growth of organisms; −: means no growth of organisms; details: enrichment broth, 37° C. for 24 hours
From the text: b. Enrichment broth: which contained 1 percent of yeast extract powder, 9 percent of sucrose, 0.025 percent of manganese sulfate (MnSO4.4H2O), 0.058 percent of magnesium sulfate (MgSO4.7H2O), and 0.9 percent of lactic acid, the pH value of the broth was adjusted to 4.5, and the enrichment broth was sterilized for later use;
(2) Experimental groups: the requirements of aseptic operation technique were strictly followed so to prepare the sterile test tubes;
a. sodium benzoate group: each test tube contained 5 milliliters enrichment broth, and was added in 0.025 percent (weight/volume) of sodium benzoate;
b. 2-phenylethanol group: each test tube contained 5 milliliters enrichment broth, and was added in 0.050 percent (weight/volume) of 2-phenylethanol;
c. sodium propionate group: each test tube contained 5 milliliters enrichment broth, and was added in 0.125 percent (weight/volume) of sodium propionate;
d. “a group of the combinations of sodium benzoate and sodium propionate”: each test tube contained 5 milliliters enrichment broth, and was added in 0.025 percent (weight/volume) of sodium benzoate and 0.125 percent (weight/volume) of sodium propionate;
e. “a group of the combinations of sodium benzoate and 2-phenylethanol”: each test tube contained 5 milliliters enrichment broth, and was added in 0.025 percent (weight/volume) of sodium benzoate and 0.050 percent (weight/volume) of 2-phenylethanol;
f. “a group of the combinations of sodium propionate and 2-phenylethanol”: each test tube contained 5 milliliters enrichment broth, and was added in 0.125 percent (weight/volume) of sodium propionate and 0.050 percent (weight/volume) of 2-phenylethanol;
g. “a group of the combinations of sodium benzoate, sodium propionate and 2-phenylethanol”: each test tube contained 5 milliliters enrichment broth, and was added in 0.025 percent (weight/volume) of sodium benzoate, 0.125 percent (weight/volume) of sodium propionate and 0.050 percent (weight/volume) of 2-phenylethanol;
h. positive control: the control tube of enrichment broth without adding in 2-phenylethanol, sodium benzoate, and sodium propionate; but inoculated the suspension of Candida albicans;
i. negative control: the control tube of enrichment broth without adding in 2-phenylethanol, sodium benzoate, and sodium propionate; and without inoculating Candida albicans;
The requirements for aseptic operation technique were strictly followed to prepare the suspension of organism. The colonies of each strain of Candida albicans organism were diluted with physiological saline respectively. The turbidities of the suspensions of Candida albicans organism were adjusted to 0.5 MCF (about 10^8 CFU/ml) by a turbidimeter. 1 milliliter of the 0.5 MCF organism suspension was added into 9 milliliters of enrichment broth. Each suspension was diluted for ten times to contain 10^7 CFU/ml of organisms.
the requirements for aseptic technique were strictly followed to take 100 microliters of the prepared organism suspension respectively and to add the suspension into the test tubes from a to h as well as the positive control tube. No organism suspension was added into the negative control tube i.
The above tubes were cultured in a biochemical incubator at 37° C. for 24 hours. Then the growth of Candida in each tube was observed and recorded.
Remark: “+” means the growth of organisms; “−” means no growth of organisms.

Lactobacillus jensenii = test: Gram-stained smear of co-culture gel, Gram-positive rods (G+b); details: for Smear G^+b: cultivated 32 hours
From the text: (§1) 2.1 Experimental strains: one Lactococcus lactis strain and one Lactobacillus jensenii strain, both were clinical isolates.
(§2) The pH value was adjusted to 5.0.
(§3) 2.4 Experimental procedure: the test gel tubes containing different concentrations of antimicrobial agents, as shown in Tables 1 to 6 were inoculated with 100 microliters of Lactobacillus lactis suspension and 100 microliters of Lactobacillus jensenii suspension at the same time. The turbidities of both suspensions were 0.5 MCF. Then the tubes were cultivated at 37° C. and under 5 percent CO2 for 32 hours. Then the changes of the pH values of gels were tested. The gels were smeared, Gram stained, and microscopically examined for the morphology and quantity of bacteria.

Lactococcus lactis = test: Gram-stained smear of co-culture gel, Gram-positive cocci (G+c); details: for Smear G^+c: cultivated 32 hours
From the text: as §1, §2, §3

[2] = tested on: Lactococcus lactis and Lactobacillus jensenii; test: pH of test gel after co-culture of Lactococcus lactis and Lactobacillus jensenii; details: cultivated 32 hours
From the text: as §1, §2, §3

Compound: O=C([O-])c1ccccc1.[Na+] [d. 0.025% sodium benzoate]
- growth of Candida albicans, strain 1 [1]: +
- growth of Candida albicans, strain 2 [1]: +
- growth of Candida albicans, strain 3 [1]: +
- growth of Candida albicans, strain 4 [1]: +
- growth of Candida albicans, strain 5 [1]: +
- growth of Candida albicans, strain 6 [1]: +
- growth of Candida albicans, strain 7 [1]: +
- growth of Candida albicans, strain 8 [1]: +
- growth of Candida albicans, strain 9 [1]: +

Compound: OCCc1ccccc1 [e. 0.050% 2-phenylethanol]
- growth of Candida albicans, strain 1 [1]: −
- growth of Candida albicans, strain 2 [1]: +
- growth of Candida albicans, strain 3 [1]: +
- growth of Candida albicans, strain 4 [1]: +
- growth of Candida albicans, strain 5 [1]: +
- growth of Candida albicans, strain 6 [1]: +
- growth of Candida albicans, strain 7 [1]: −
- growth of Candida albicans, strain 8 [1]: +
- growth of Candida albicans, strain 9 [1]: +

Compound: CCC(=O)[O-].[Na+] [f. 0.125% sodium propionate]
- growth of Candida albicans, strain 1 [1]: +
- growth of Candida albicans, strain 2 [1]: +
- growth of Candida albicans, strain 3 [1]: −
- growth of Candida albicans, strain 4 [1]: +
- growth of Candida albicans, strain 5 [1]: +
- growth of Candida albicans, strain 6 [1]: +
- growth of Candida albicans, strain 7 [1]: −
- growth of Candida albicans, strain 8 [1]: +
- growth of Candida albicans, strain 9 [1]: −

Compound: CC(=O)[O-].[Na+] [sodium acetate]
- Smear G^+b (Lactobacillus jensenii; 0.1 % in test gel): G^+b+
- Smear G^+b (Lactobacillus jensenii; 0.2 % in test gel): G^+b+
- Smear G^+b (Lactobacillus jensenii; 0.3 % in test gel): G^+b+
- Smear G^+b (Lactobacillus jensenii; 0.4 % in test gel): G^+b+
- Smear G^+b (Lactobacillus jensenii; 0.5 % in test gel): G^+b+
- Smear G^+b (Lactobacillus jensenii; 0.6 % in test gel): G^+b+
- Smear G^+b (Lactobacillus jensenii; 0.7 % in test gel): G^+b+
- Smear G^+b (Lactobacillus jensenii; 0.8 % in test gel): G^+b+
- Smear G^+c (Lactococcus lactis; 0.1 % in test gel): G^+c++
- inhibition effect on the growth of Lactococcus lactis (Lactococcus lactis; 0.1 to 0.8 percent): little inhibition effect
- Smear G^+c (Lactococcus lactis; 0.2 % in test gel): G^+c++
- Smear G^+c (Lactococcus lactis; 0.3 % in test gel): G^+c++
- Smear G^+c (Lactococcus lactis; 0.4 % in test gel): G^+c++
- Smear G^+c (Lactococcus lactis; 0.5 % in test gel): G^+c++
- Smear G^+c (Lactococcus lactis; 0.6 % in test gel): G^+c++
- Smear G^+c (Lactococcus lactis; 0.7 % in test gel): G^+c++
- Smear G^+c (Lactococcus lactis; 0.8 % in test gel): G^+c++
- pH value ([2]; 0.1 % in test gel): <3.8
- pH value ([2]; 0.2 % in test gel): <3.8
- pH value ([2]; 0.3 % in test gel): <3.8
- pH value ([2]; 0.4 % in test gel): <3.8
- pH value ([2]; 0.5 % in test gel): <3.8
- pH value ([2]; 0.6 % in test gel): 3.8
- pH value ([2]; 0.7 % in test gel): 3.8
- pH value ([2]; 0.8 % in test gel): 3.8-4.1

Compound: CC(=O)c1c([O-])cc(C)oc1=O.[Na+] [sodium dehydroacetate]
- Smear G^+b (Lactobacillus jensenii; 0.005 % in test gel): G^+b+
- Smear G^+b (Lactobacillus jensenii; 0.010 % in test gel): G^+b+
- Smear G^+b (Lactobacillus jensenii; 0.015 % in test gel): G^+b+
- Smear G^+b (Lactobacillus jensenii; 0.020 % in test gel): G^+b+
- Smear G^+b (Lactobacillus jensenii; 0.025 % in test gel): G^+b+
- Smear G^+b (Lactobacillus jensenii; 0.030 % in test gel): G^+b+
- Smear G^+b (Lactobacillus jensenii; 0.035 % in test gel): G^+b+
- Smear G^+c (Lactococcus lactis; 0.005 % in test gel): G^+c++
- inhibition effect on the growth of Lactococcus lactis (Lactococcus lactis; 0.005 to 0.035 percent): little inhibition effect
- Smear G^+c (Lactococcus lactis; 0.010 % in test gel): G^+c++
- Smear G^+c (Lactococcus lactis; 0.015 % in test gel): G^+c++
- Smear G^+c (Lactococcus lactis; 0.020 % in test gel): G^+c++
- Smear G^+c (Lactococcus lactis; 0.025 % in test gel): G^+c++
- Smear G^+c (Lactococcus lactis; 0.030 % in test gel): G^+c++
- Smear G^+c (Lactococcus lactis; 0.035 % in test gel): G^+c++
- pH value ([2]; 0.005 % in test gel): 3.8
- pH value ([2]; 0.010 % in test gel): 3.8
- pH value ([2]; 0.015 % in test gel): 3.8
- pH value ([2]; 0.020 % in test gel): 3.8
- pH value ([2]; 0.025 % in test gel): 3.8
- pH value ([2]; 0.030 % in test gel): 3.8
- pH value ([2]; 0.035 % in test gel): 3.8

Compound: CCCCCCCC(=O)[O-].[Na+] [sodium octanoate]
- Smear G^+b (Lactobacillus jensenii; 0.010 % in test gel): G^+b+
- Smear G^+b (Lactobacillus jensenii; 0.015 % in test gel): G^+b+
- Smear G^+b (Lactobacillus jensenii; 0.020 % in test gel): G^+b+
- inhibiting effect on lactobacillus (Lactobacillus jensenii; 0.05 percent): stronger inhibiting effect
- Smear G^+c (Lactococcus lactis; 0.010 % in test gel): G^+c++++
- inhibition effect on the growth of Lactococcus lactis (Lactococcus lactis; 0.010 to 0.020 percent): little inhibition effect
- Smear G^+c (Lactococcus lactis; 0.015 % in test gel): G^+c++++
- Smear G^+c (Lactococcus lactis; 0.020 % in test gel): G^+c++++
- inhibiting effect on Lactococcus lactis (Lactococcus lactis; 0.05 percent): stronger inhibiting effect
- pH value ([2]; 0.010 % in test gel): <3.8
- pH value ([2]; 0.015 % in test gel): <3.8
- pH value ([2]; 0.020 % in test gel): 3.8
- pH value ([2]; 0.05 % in test gel): 4.8
